Source: patent US10757944B2, “Ozone treatment for elimination of pathogens” (priority 2016, dated 2020)

Assays:
[1] = Pesticide residue on hemp flower after ozone treatment (AOAC official method 2007.01); type: physicochemical; details: for Sample 1: residue on pesticide treated hemp exposed to ozone / Sample 2: residue on pesticide treated hemp exposed to ozone / Sample 3: residue on pesticide treated hemp exposed to ozone: 200 ppm ozone for 20 minutes; for average reduction of pesticide across the three samples tested: hemp, 20 minutes at 200 ppm ozone; for Control: residue on pesticide treated hemp not exposed to ozone: no ozone exposure
Experimental: The ability of ozone to reduce pesticide residue using an embodiment of a disclosed pathogen reduction device was evaluated. In this series of experiments, Myclobutanil and Bifenazate were purchased in liquid formulations (Myclobutanil at 19.7% from Dow AgroSciences as Eagle® 20EW and Bifenazate at 22.6% from Chemtura Corporation as Floramite® SC). The pesticides were sprayed on homogenized hemp flower and air dried. Dried hemp flower with pesticide was then exposed to treatment with 200 ppm of ozone for 20 minutes. Non pesticide treated hemp, pesticide treated hemp, and pesticide treated hemp that was exposed to ozone were analyzed by spectrometry using AOAC official method 2007.01. The results are disclosed below in Table 3 were Matrix Blank is non pesticide treated hemp (negative control), Control is pesticide treated hemp that was not exposed to ozone, and Sample 1, Sample 2, and Sample 3 are three samples of pesticide treated hemp that was exposed to ozone at 200 ppm for 20 minutes.

[2] = Cannabinoid and terpene content of cannabis flower before and after ozone exposure; type: physicochemical; details: for % Change (decrease): 60 minute exposure to 200 ppm of ozone vs before; for % After Ozone Exposure (60 minutes): content of cannabis flower after 60 minute exposure to 200 ppm of ozone; for % Before Ozone Exposure (0 minutes): content of cannabis flower before exposure
Experimental: Cannabinoid and terpene content of cannabis flower was measured before exposure to 200 ppm of ozone in an embodiment of a disclosed pathogen reduction device and after a 60 minute exposure. The results are disclosed in Table 7 by the different cannabinoids and terpenes measured.

Row | Structure (SMILES) | Sample 1: residue on pesticide treated hemp exposed to ozone [1] | Sample 2: residue on pesticide treated hemp exposed to ozone [1] | Sample 3: residue on pesticide treated hemp exposed to ozone [1] | average reduction of pesticide across the three samples tested [1] | Control: residue on pesticide treated hemp not exposed to ozone [1] | % Change (decrease) [2] | % After Ozone Exposure (60 minutes) [2] | % Before Ozone Exposure (0 minutes) [2]
1 | COc1ccc(-c2ccccc2)cc1NNC(=O)OC(C)C [Bifenazate] | 0.28 mg/kg | 0.21 mg/kg | 0.22 mg/kg | 0.1 ppm | 0.34 mg/kg |  |  | 
2 | C=C(C)[C@@H]1CCC(C)=C[C@H]1c1c(O)cc(CCCCC)c(C(=O)O)c1O [CBDA] |  |  |  |  |  | 5.4% | 0.035% | 0.037%
3 | CCCCCc1cc(O)c(C/C=C(\C)CCC=C(C)C)c(O)c1C(=O)O [CBGA] |  |  |  |  |  | 13.4% | 0.552% | 0.638%
4 | CCCCCc1cc2c(c(O)c1C(=O)O)[C@@H]1C=C(C)CC[C@H]1C(C)(C)O2 [THCA] |  |  |  |  |  | 7.1% | 15.7% | 16.9%
5 | CCCCCc1cc2c(c(O)c1C(=O)O)-c1cc(C)ccc1C(C)(C)O2 [CBNA] |  |  |  |  |  | 0.04% | 0.0458% | 0.046%
6 | CCCc1cc2c(c(O)c1C(=O)O)[C@@H]1C=C(C)CC[C@H]1C(C)(C)O2 [THCVA] |  |  |  |  |  | 1.2% | 0.076% | 0.077%
7 | CCCCCc1cc2c(c(O)c1C(=O)O)C=CC(C)(CCC=C(C)C)O2 (stereo not shown) [CBCA] |  |  |  |  |  | 0.28% | 0.102% | 0.105%
8 | CCCCC(C#N)(Cn1cncn1)c1ccc(Cl)cc1 (stereo not shown) [Myclobutanil] | 0.39 mg/kg | 0.28 mg/kg | 0.28 mg/kg | 0.18 ppm | 0.5 mg/kg |  |  | 
9 | CCCCCc1cc(O)c2c(c1)OC(C)(C)[C@@H]1CCC(C)=C[C@@H]21 [THC] |  |  |  |  |  | 9.2% | 0.680% | 0.749%
